38 compounds from patent US10076519B2 (CYTOKINETICS, INC., priority 2010, dated 2018) can be followed below.

In one assay the test system is rabbit skeletal myofibrils (fast skeletal myofibrils). In words: Activation of fast skeletal myofibrils (PUMA assay, PK/LDH-coupled ATPase at pCa25). The assay is classed as biochemical. The note with it: AC1.4 determined according to the procedure of Example 39; reported as class symbols. The method, boiled down: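 ATPase activity of Triton-washed rabbit skeletal myofibrils, roughly 90% fast fibres, tracked by NADH loss at 340 nm through a PK/LDH-coupled ADP-regenerating system. Calcium set to 25% of maximal activity (pCa25), in PIPES 12 mM pH 6.8 with 2 mM MgCl2 and 1 mM DTT; AC1.4 reported.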
With `CCNc1n[nH]c2ccc(-c3ccc(NCC4(c5ccccn5)CCC4)nn3)cc12` [{6-[3-(ethylamino)(1H-indazol-5-yl)]pyridazin-3-yl}[(2-pyridylcyclobutyl)methyl]amine], the “Mean AC1.4” value is reported as “A (A=<1 uM)”. On the same count and under the same terms, as for `Oc1cccc(C2(CNc3ccc(-c4ccc5[nH]ncc5c4)nn3)CCC2)n1` [6-({[(6-(1H-indazol-5-yl)pyridazin-3-yl)amino]methyl}cyclobutyl) pyridin-2-ol], the entry is “D (D=>20 uM)”; as for `CC(C)CC(NC(=O)c1ccc(NCC(C)(C)c2ccc(F)cc2)nn1)C(N)=O` (centres unmarked) [N-(1-carbamoyl-3-methylbutyl)(6-{[2-(4-fluorophenyl)-2-methylpropyl]amino}pyridazin-3-yl)carboxamide], “C (C=10-20 uM)”. The same measure, in the same setting: as for `CC(C)(CNc1nnc(-c2cccc(C(N)=O)c2)cc1C#N)c1ccc(F)cc1` [3-(5-cyano-6-{[2-(4-fluorophenyl)-2-methylpropyl]amino}pyridazin-3-yl)benzamide], the entry is “C (C=10-20 uM)”; as for `CC(C)(CNc1ccc(C(N)=O)nn1)c1ccc(F)cc1` [6-{[2-(4-fluorophenyl)-2-methylpropyl]amino}pyridazine-3-carboxamide], “C (C=10-20 uM)”; as for `CS(=O)(=O)N1CC(CNc2ccc(-c3ccc4[nH]ncc4c3)nn2)(c2ncccc2F)C1` [3-(3-fluoro(2-pyridyl))-3-{[(6-(1H-indazol-5-yl)pyridazin-3-yl)amino]methyl}-1-(methylsulfonyl)azetidine], “D (D=>20 uM)”. In the case of `CC1(C)C(=O)Nc2cc(-c3ccc(NCC4(c5ncccc5F)CCC4)nn3)ccc21`, the “Mean AC1.4” value is given as “D (D=>20 uM)”.

`CC(C)(C)OC(=O)NCc1cccc(-c2ccc(NCC(C)(C)c3ccc(F)cc3)nn2)c1` [(tert-butoxy)-N-{[3-(6-{[2-(4-fluorophenyl)-2-methylpropyl]amino}pyridazin-3-yl)phenyl]methyl}carboxamide]: the “Mean AC1.4” value is reported as “B (B=1-10 uM)”.

On to `C=Cc1n[nH]c2ccc(-c3ccc(NCC(C)(C)c4ccc(F)cc4)nn3)cc12` [[2-(4-fluorophenyl)-2-methylpropyl][6-(3-vinyl(1H-indazol-5-yl))pyridazin-3-yl]amine], for which the “Mean AC1.4” value is “A (A=<1 uM)”. In the case of `Oc1cccc(C2(CNc3ccc(-c4ccc5cn[nH]c5c4)nn3)CCC2)n1` [6-({[(6-(1H-indazol-6-yl)pyridazin-3-yl)amino]methyl}cyclobutyl) pyridin-2-ol], the “Mean AC1.4” value is listed as “D (D=>20 uM)”. The same measure, in the same setting: as for `CC(C)(CNc1ccc(-c2ccc3[nH]nc(C(O)CO)c3c2)nn1)c1ccc(F)cc1` (centres unmarked) [1-[5-(6-{[2-(4-fluorophenyl)-2-methylpropyl]amino}pyridazin-3-yl)-1H-indazol-3-yl]ethane-1,2-diol], the entry is “B (B=1-10 uM)”; as for `N#Cc1ccnc(C2(CNc3ccc(-c4cc(C(N)=O)ccc4F)nn3)CCC2)c1`, “B (B=1-10 uM)”; as for `CC(C)(CNc1ccc(C(=O)N2CCCC2C(N)=O)nn1)c1ccc(F)cc1` (centres unmarked) [1-[(6-{[2-(4-fluorophenyl)-2-methylpropyl]amino}pyridazin-3-yl)carbonyl]pyrrolidine-2-carboxamide], “D (D=>20 uM)”. On to `NC(=O)c1cccc(-c2ccc(NCC3(c4cnccn4)CCC3)nn2)c1`, for which the “Mean AC1.4” value is recorded as “D (D=>20 uM)”. The same measure, in the same setting: with `CC(CNc1ccc(-c2ccc3[nH]nc(N)c3c2)nn1)N1CCCCC1` (centres unmarked) [[6-(3-amino(1H-indazol-5-yl))pyridazin-3-yl](2-piperidylpropyl)amine] the entry was “D (D=>20 uM)”; with `CC(C)(CNc1ccc(-c2ccc3[nH]c(=O)c(=O)[nH]c3c2)nn1)c1ccc(F)cc1` [6-(6-{[2-(4-fluorophenyl)-2-methylpropyl]amino}pyridazin-3-yl)-1,4-dihydroquinoxaline-2,3-dione], “A (A=<1 uM)”. As to `CC(C)(CNc1ccc(-c2ccc3nc(N)[nH]c3c2)nn1)c1ccc(F)cc1` [[6-(2-aminobenzimidazol-5-yl)pyridazin-3-yl][2-(4-fluorophenyl)-2-methylpropyl]amine], the “Mean AC1.4” value was “A (A=<1 uM)”. For `NC(=O)c1cccc(-c2ccc(NCC3(c4cc(C(N)=O)ccn4)CCC3)nn2)c1`, the “Mean AC1.4” value is “D (D=>20 uM)”.

The same assay, now with this note: median AC1.4 class, procedure of Example 39.
`NC(=O)c1nc(-c2ccc(NCC3(c4ncccc4F)CCC3)nn2)no1` [3-[6-({[(3-fluoro-2-pyridyl)cyclobutyl]methyl}ami-no)pyridazin-3-yl]-1,2,4-oxadiazole-5-carboxamide]: the “Mean AC1.4” value was “B (B=1-10 uM)”. `Nc1ncc(-c2ccc(NCC3(c4ncccc4F)CCC3)nn2)cn1` [[6-(2-aminopyrimidin-5-yl)pyridazin-3-yl]{[(3-fluoro(2-pyridyl))cyclobutyl]methyl}amine]: the “Mean AC1.4” value is on record as “B (B=1-10 uM)”. As to `NC(=O)c1cccc(-c2ccc(NC3(c4nccs4)CCC3)nn2)c1` [3-{6-[(1,3-thiazol-2-ylcyclobutyl)amino]pyridazin-3-yl}benzamide], the “Mean AC1.4” value is recorded as “D (D=>20 uM)”. The same measure, in the same setting: as for `CCOC(=O)c1nc(-c2cc(Cl)c(NCC3(c4ncccc4F)CCC3)nn2)sc1Cl` [ethyl 5-chloro-2-[5-chloro-6-({[(3-fluoro(2-pyridyl))cyclobutyl]methyl}ami-no)pyridazin-3-yl]-1,3-thiazole-4-carboxylate], the entry is “D (D=>20 uM)”.

For `O=C(NC[C@H](O)CO)c1ccc(F)c(-c2ccc(NC[C@]3(c4ncccc4F)C[C@H](F)C3)nn2)c1` [N-((2S)-2,3-dihydroxypropyl){4-fluoro-3-[6-({[3-fluoro-1-(3-fluoro(2-pyridyl))cyclobutyl]methyl}ami-no)pyridazin-3-yl]phenyl}carboxamide], the “Mean AC1.4” value is “A (A=<1 uM)”.

In the case of `NC(=O)c1cccc(-c2ccc(NCC(F)(F)c3ccccn3)nn2)c1` [3-{6-[(2,2-difluoro-2-(2-pyridyl)ethyl)amino]pyridazin-3-yl}benzamide], the “Mean AC1.4” value was “D (D=>20 uM)”.

Regarding `NC(=O)c1ccc(Cl)c(-c2ccc(NC3(c4ncccc4F)CCC3)nn2)c1`, the “Mean AC1.4” value is given as “B (B=1-10 uM)”. Same read-out and setting: with `N#Cc1cnc(-c2ccc(NCC3(c4ncccc4F)CCC3)nn2)s1` [2-[6-({[(3-fluoro-2-pyridyl)cyclobutyl]methyl}ami-no)pyridazin-3-yl]-1,3-thiazole-5-carbonitrile] the entry was “B (B=1-10 uM)”; with `CC(O)(c1cnc(-c2ccc(NCC3(c4ncccc4F)CCC3)nn2)s1)C(F)(F)F` (centres unmarked) [1,1,1-trifluoro-2-{2-[6-({[(3-fluoro(2-pyridyl))cyclobutyl]methyl}ami-no)pyridazin-3-yl](1,3-thiazol-5-yl)}propan-2-ol], “C (C=10-20 uM)”. For the compound `N#Cc1cccc(-c2ccc(NCC3(c4ccccn4)CCC3)nn2)c1` [3-(6-{[(2-pyridylcyclobutyl)methyl]ami-no}pyridazin-3-yl)benzenecarbonitrile], the “Mean AC1.4” value is recorded as “B (B=1-10 uM)”. Take `NS(=O)(=O)Nc1ccc(F)c(-c2ccc(NCC3(c4ncccc4F)CCC3)nn2)c1` [amino{4-fluoro-3-[6-({[(3-fluoro(2-pyridyl))cyclobutyl]methyl}ami-no)pyridazin-3-yl]phenyl}sulfonamide]: the “Mean AC1.4” value is listed as “A (A=<1 uM)”.

Still in this assay, the particulars now being: median AC1.4 reported as class; procedure of Example 39.
Take `O=C(NCc1nccs1)c1ccc(NCC2(c3ncccc3F)CCC2)nn1` [[6-({[(3-fluoro(2-pyridyl))cyclobutyl]methyl}ami-no)pyridazin-3-yl]-N-(1,3-thiazol-2-ylmethyl)carboxamide]: the “Mean AC1.4” value is “D (D=>20 uM)”.

As for `O=C(O)c1ccc(O)c(-c2ccc(NCC3(c4ncccc4F)CCC3)nn2)c1` [3-[6-({[(3-fluoro(2-pyridyl))cyclobutyl]methyl}ami-no)pyridazin-3-yl]-4-hydroxybenzoic acid], the “Mean AC1.4” value is “C (C=10-20 uM)”. The same measure, in the same setting: as for `CC(=O)NCc1ccc(F)c(-c2ccc(NC[C@]3(c4ncccc4F)C[C@H](F)C3)nn2)c1` [N-({4-fluoro-3-[6-({[3-fluoro-1-(3-fluoro(2-pyridyl))cyclobutyl]methyl}ami-no)pyridazin-3-yl]phenyl}methyl)acetamide], the entry is “B (B=1-10 uM)”; as for `CNC(=O)c1cc(-c2ccc(NC[C@]3(c4ncccc4F)C[C@H](F)C3)nn2)c(F)cc1O` [{4-fluoro-5-[6-({[3-fluoro-1-(3-fluoro(2-pyridyl))cyclobutyl]methyl}ami-no)pyridazin-3-yl]-2-hydroxyphenyl}-N-methylcarboxamide], “A (A=<1 uM)”.

Turning to `Fc1cccnc1C1(CNc2ccc(-c3ncc(CN4CCN(CC(F)(F)F)CC4)s3)nn2)CCC1` [{[(3-fluoro(2-pyridyl))cyclobutyl]methyl}[6-(5-{[4-(2,2,2-trifluoroethyl)piperazinyl]meth-yl}(1,3-thiazol-2-yl))pyridazin-3-yl]amine], the “Mean AC1.4” value is “B (B=1-10 uM)”. Consider `CC(C)[C@H](N)C(=O)OCC(=O)NCc1cnc(-c2ccc(NCC3(c4ncccc4F)CCC3)nn2)s1` [[N-({2-[6-({[(3-fluoro-2-pyridyl)cyclobutyl]methyl}ami-no)pyridazin-3-yl]-1,3-thiazol-5-yl}methyl)carbamoyl]methyl (2S)-2-amino-3-methylbutanoate], for which the “Mean AC1.4” value is listed as “A (A=<1 uM)”. The same measure, in the same setting: with `CS(=O)(=O)N1CCN(Cc2cnc(-c3ccc(NCC4(c5ncccc5F)CCC4)nn3)s2)CC1` [1-({2-[6-({[(3-fluoro(2-pyridyl))cyclobutyl]methyl}ami-no)pyridazin-3-yl](1,3-thiazol-5-yl)}methyl)-4-(methylsulfonyl)piperazine] the entry was “D (D=>20 uM)”; with `O=C(O)Cc1cnc(-c2ccc(NC[C@]3(c4ncccc4F)C[C@H](F)C3)nn2)s1` [2-{2-[6-({[3-fluoro-1-(3-fluoro(2-pyridyl))cyclobutyl]methyl}ami-no)pyridazin-3-yl]-1,3-thiazol-5-yl}acetic acid], “B (B=1-10 uM)”. On the same count and under the same terms, with `CN(Cc1nccs1)C(=O)c1ccc(NCC2(c3ncccc3F)CCC2)nn1` [[6-({[(3-fluoro(2-pyridyl))cyclobutyl]methyl}ami-no)pyridazin-3-yl]-N-methyl-N-(1,3-thiazol-2-ylmethyl)carboxamide] the entry was “D (D=>20 uM)”.
